Source: article PMC3900240 (Biochimica et biophysica acta, 2013)

Target: T1, SoArsAB (Sporomusa ovata, UniProt F6MZ55+F6MZ56)
T1 sequence (F6MZ55 5-350 limits assumed): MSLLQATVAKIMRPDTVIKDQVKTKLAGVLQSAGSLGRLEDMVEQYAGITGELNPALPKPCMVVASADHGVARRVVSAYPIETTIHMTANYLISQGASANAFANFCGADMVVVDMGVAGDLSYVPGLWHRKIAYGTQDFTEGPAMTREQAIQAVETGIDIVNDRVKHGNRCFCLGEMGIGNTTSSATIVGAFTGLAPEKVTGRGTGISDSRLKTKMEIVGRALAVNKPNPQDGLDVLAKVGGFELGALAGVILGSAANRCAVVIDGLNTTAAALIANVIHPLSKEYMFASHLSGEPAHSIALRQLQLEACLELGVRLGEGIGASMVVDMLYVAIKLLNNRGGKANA
T1 sequence (F6MZ56 1-350): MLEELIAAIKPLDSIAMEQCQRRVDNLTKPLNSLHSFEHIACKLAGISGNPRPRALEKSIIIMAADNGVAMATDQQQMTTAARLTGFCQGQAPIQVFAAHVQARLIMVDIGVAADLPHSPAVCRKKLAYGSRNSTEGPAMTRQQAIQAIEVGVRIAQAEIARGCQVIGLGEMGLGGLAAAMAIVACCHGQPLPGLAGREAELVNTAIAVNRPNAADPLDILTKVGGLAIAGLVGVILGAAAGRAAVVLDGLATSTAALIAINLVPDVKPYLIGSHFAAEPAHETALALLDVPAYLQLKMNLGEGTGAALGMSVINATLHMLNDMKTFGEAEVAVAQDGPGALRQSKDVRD
Assay: HPLC product formation
Assay type: biochemical
Settings: pH 10, 37 °C, 6 h

| SMILES | HPLC product formation (3 mM NaMN) | HPLC product formation (3 mM p-cresol) |
| --- | --- | --- |
| Cc1ccc(O)cc1 [p-cresol] | using SeCobT^WT, SeCobT^S80Y,Q88M,L175M or SoArsAB with NaMN and p-cresol | – |
| O=C([O-])c1ccc[n+]([C@@H]2O[C@H](COP(=O)(O)O)[C@@H](O)[C@H]2O)c1 [NaMN, nicotinate mononucleotide] | – | using SeCobT^WT, SeCobT^S80Y,Q88M,L175M or SoArsAB with NaMN and p-cresol |
